Read-outs that look alike come from different tables or passages of the source.
How the values were obtained:
Human plasma kallikrein = Human plasma kallikrein (Homo sapiens (Human), UniProt P03952); assay: Kallikrein Assay; format: biochemical; settings: purified Human plasma kallikrein 0.5 nM, Acetyl-K-P-R-AFC, pH 7.4; Ki from IC50 by Cheng Prusoff
Procedure, shortened: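 Purified human plasma kallikrein (0.5 nM final) with Acetyl-K-P-R-AFC substrate ([…]) in 50 mM HEPES pH 7.4, 150 mM NaCl, 5 mM CaCl2, 0.1% PEG 8000, after enzyme-inhibitor equilibration. Fluorescence (405 ex/510 em) under linear conditions; IC50 from four-parameter fit, converted to Ki by Cheng-Prusoff.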

human Factor XIa = human Factor XIa (Homo sapiens (Human), UniProt P03951); assay: Factor XIa Assay; format: biochemical; settings: read-out: FXIa Ki
human Factor XIa, sequence (P03951 388-625): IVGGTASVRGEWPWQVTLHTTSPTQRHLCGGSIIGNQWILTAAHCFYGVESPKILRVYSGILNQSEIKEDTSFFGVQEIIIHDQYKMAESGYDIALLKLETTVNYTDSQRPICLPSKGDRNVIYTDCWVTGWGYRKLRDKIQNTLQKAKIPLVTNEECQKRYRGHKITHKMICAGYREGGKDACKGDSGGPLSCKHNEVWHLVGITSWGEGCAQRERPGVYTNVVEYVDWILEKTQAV
human Factor XIa, sequence (P03951 19-387 partner): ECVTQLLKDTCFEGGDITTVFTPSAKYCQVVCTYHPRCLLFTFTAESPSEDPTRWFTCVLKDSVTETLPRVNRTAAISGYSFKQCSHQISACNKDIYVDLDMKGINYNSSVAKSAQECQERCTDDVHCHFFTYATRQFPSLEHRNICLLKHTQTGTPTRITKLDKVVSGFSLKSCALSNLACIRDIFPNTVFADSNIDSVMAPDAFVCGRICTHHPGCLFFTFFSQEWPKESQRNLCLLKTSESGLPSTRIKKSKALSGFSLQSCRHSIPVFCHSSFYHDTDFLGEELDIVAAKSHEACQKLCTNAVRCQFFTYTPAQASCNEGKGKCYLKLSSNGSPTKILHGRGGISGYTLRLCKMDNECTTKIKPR
Procedure, shortened: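 Ki derived from the dependence of Vo/Vi on inhibitor concentration under a competitive-inhibition model, after pre-equilibration of enzyme and inhibitor. Reaction: 40 pM human FXIa, 100 μM Z-Gly-Pro-Arg-AFC, HEPES 50 mM pH 7.4 with NaCl, CaCl2 and PEG 8000; run at room temperature or 37° C.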

[1] = purified human Factor XIa 40 pM, Z-Gly-Pro-Arg-AFC 100 μM, pH 7.4

Human plasma kallikrein, sequence (P03952 391-638): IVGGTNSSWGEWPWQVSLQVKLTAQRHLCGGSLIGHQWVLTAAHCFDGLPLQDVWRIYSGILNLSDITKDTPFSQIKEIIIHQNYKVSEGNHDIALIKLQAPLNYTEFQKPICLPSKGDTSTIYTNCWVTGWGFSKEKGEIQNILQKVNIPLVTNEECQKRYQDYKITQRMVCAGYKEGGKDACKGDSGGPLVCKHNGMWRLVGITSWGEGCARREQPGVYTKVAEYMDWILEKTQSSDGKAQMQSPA
Human plasma kallikrein, sequence (P03952 20-390 partner): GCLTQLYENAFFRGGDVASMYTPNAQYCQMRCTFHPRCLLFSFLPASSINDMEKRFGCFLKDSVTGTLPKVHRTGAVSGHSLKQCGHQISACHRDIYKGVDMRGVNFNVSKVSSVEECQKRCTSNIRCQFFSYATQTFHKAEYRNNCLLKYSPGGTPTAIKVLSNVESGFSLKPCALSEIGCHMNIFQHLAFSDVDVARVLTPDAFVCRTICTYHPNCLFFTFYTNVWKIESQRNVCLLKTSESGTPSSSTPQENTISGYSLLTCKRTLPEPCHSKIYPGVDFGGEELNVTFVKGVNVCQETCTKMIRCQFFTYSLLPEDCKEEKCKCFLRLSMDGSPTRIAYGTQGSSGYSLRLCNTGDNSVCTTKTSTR

SMILES	Ki (Human plasma kallikrein)	Ki (human Factor XIa; [1])	Ki (human Factor XIa)
COC(=O)Nc1ccc(C(=O)N[C@@H](Cc2ccc(-c3cc(C(F)(F)F)nn3C)cc2)C(=O)N2CC[C@@]3(C2)OC(=O)Nc2ccc(Cl)cc23)cc1 [Example 81, methyl (4-(((S)-1-((R)-6-chloro-2-oxo-1,2-dihydrospiro[benzo[d][1,3]oxazine-4,3′-pyrrolidin]-1′-yl)-3-(4-(1-methyl-3-(trifluoromethyl)-1H-pyrazol-5-yl)phenyl)-1-oxopropan-2-yl)carbamoyl)phenyl)carbamate]	7.98 nM	29.9 nM	
COC(=O)Nc1ccc(C(=O)N[C@@H](Cc2ccc(-c3conc3C)cc2)C(=O)N2CC[C@@]3(C2)OC(=O)Nc2ccc(Cl)cc23)cc1 [Example 82, methyl (4-(((S)-1-((R)-6-chloro-2-oxo-1,2-dihydrospiro[benzo[d][1,3]oxazine-4,3′-pyrrolidin]-1′-yl)-3-(4-(3-methylisoxazol-4-yl)phenyl)-1-oxopropan-2-yl)carbamoyl)phenyl)carbamate]	11.7 nM	7.12 nM	
COC(=O)Nc1ccc(C(=O)N[C@@H](Cc2ccc(-c3cnn(C)c3)cc2)C(=O)N2CC[C@@]3(C2)OC(=O)Nc2ccc(Cl)cc23)cc1 [Example 83, methyl (4-(((S)-1-((R)-6-chloro-2-oxo-1,2-dihydrospiro[benzo[d][1,3]oxazine-4,3′-pyrrolidin]-1′-yl)-3-(4-(1-methyl-1H-pyrazol-4-yl)phenyl)-1-oxopropan-2-yl)carbamoyl)phenyl)carbamate]	31.1 nM	2.65 nM	
COC(=O)Nc1ccc(C(=O)N[C@@H](Cc2cc(C3CC3)no2)C(=O)N2CC[C@@]3(C2)OC(=O)Nc2ccc(Cl)cc23)cc1 [Example 84, methyl (4-(((S)-1-((R)-6-chloro-2-oxo-1,2-dihydrospiro[benzo[d][1,3]oxazine-4,3′-pyrrolidin]-1′-yl)-3-(3-cyclopropylisoxazol-5-yl)-1-oxopropan-2-yl)carbamoyl)phenyl)carbamate]	28.4 nM	28.1 nM	
COC(=O)Nc1ccc(C(=O)N[C@@H](CC(=O)N2CCCCC2)C(=O)N2CC[C@@]3(C2)OC(=O)Nc2ccc(Cl)cc23)cc1 [Example 87, methyl (4-(((S)-1-((R)-6-chloro-2-oxo-1,2-dihydrospiro[benzo[d][1,3]oxazine-4,3′-pyrrolidin]-1′-yl)-1,4-dioxo-4-(piperidin-1-yl)butan-2-yl)carbamoyl)phenyl)carbamate]	11 nM	3.65 nM	
COC(=O)Nc1ccc(C(=O)N[C@@H](CC(=O)N2CC3CCCC32)C(=O)N2CCC[C@@]3(C2)OC(=O)Nc2ccc(Cl)cc23)cc1 (stereo partly drawn) [Example 94, methyl (4-(((2S)-4-(6-azabicyclo[3.2.0]heptan-6-yl)-1-((R)-6-chloro-2-oxo-1,2-dihydrospiro[benzo[d][1,3]oxazine-4,3′-piperidin]-1′-yl)-1,4-dioxobutan-2-yl)carbamoyl)phenyl)carbamate]	1.42 nM	5.47 nM	
COC(=O)Nc1ccc(C(=O)N[C@@H](CC(=O)N2CC[C@H]2CO)C(=O)N2CCC[C@@]3(C2)OC(=O)Nc2ccc(Cl)cc23)cc1 [Example 95, methyl (4-(((S)-1-((R)-6-chloro-2-oxo-1,2-dihydrospiro[benzo[d][1,3]oxazine-4,3′-piperidin]-1′-yl)-4-((S)-2-(hydroxymethyl)azetidin-1-yl)-1,4-dioxobutan-2-yl)carbamoyl)phenyl)carbamate]	1.81 nM	3.59 nM	
COC(=O)Nc1ccc(C(=O)N[C@@H](CC(=O)N2CC(OC)C2)C(=O)N2CCC[C@@]3(C2)OC(=O)Nc2ccc(Cl)cc23)cc1 [Example 97, methyl (4-(((S)-1-((R)-6-chloro-2-oxo-1,2-dihydrospiro[benzo[d][1,3]oxazine-4,3′-piperidin]-1′-yl)-4-(3-methoxyazetidin-1-yl)-1,4-dioxobutan-2-yl)carbamoyl)phenyl)carbamate]	15.3 nM	51.1 nM	
COC(=O)Nc1ccc(C(=O)N[C@@H](CC(=O)NCc2ccnn2C)C(=O)N2CCC[C@@]3(C2)OC(=O)Nc2ccc(Cl)cc23)cc1 [Example 98, methyl (4-(((S)-1-((R)-6-chloro-2-oxo-1,2-dihydrospiro[benzo[d][1,3]oxazine-4,3′-piperidin]-1′-yl)-4-(((1-methyl-1H-pyrazol-5-yl)methyl)amino)-1,4-dioxobutan-2-yl)carbamoyl)phenyl)carbamate]	25.4 nM	38.3 nM	
COC(=O)Nc1ccc(C(=O)N[C@@H](CC(=O)NCC2CC2)C(=O)N2CCC[C@@]3(C2)OC(=O)Nc2ccc(Cl)cc23)cc1 [Example 99, methyl (4-(((S)-1-((R)-6-chloro-2-oxo-1,2-dihydrospiro[benzo[d][1,3]oxazine-4,3′-piperidin]-1′-yl)-4-((cyclopropylmethyl)amino)-1,4-dioxobutan-2-yl)carbamoyl)phenyl)carbamate]	17.6 nM	40.4 nM	
COC(=O)Nc1ccc(C(=O)N[C@@H](CC(=O)N2CC(O)(C3CC3)C2)C(=O)N2CCC[C@@]3(C2)OC(=O)Nc2ccc(Cl)cc23)cc1 [Example 100, methyl (4-(((S)-1-((R)-6-chloro-2-oxo-1,2-dihydrospiro[benzo[d][1,3]oxazine-4,3′-piperidin]-1′-yl)-4-(3-cyclopropyl-3-hydroxyazetidin-1-yl)-1,4-dioxobutan-2-yl)carbamoyl)phenyl)carbamate]	19.7 nM	39.9 nM	
COC(=O)Nc1ccc(C(=O)N[C@@H](CC(=O)N2CC[C@@H](OC)C2)C(=O)N2CCC[C@@]3(C2)OC(=O)Nc2ccc(Cl)cc23)cc1 [Example 101, methyl (4-(((S)-1-((R)-6-chloro-2-oxo-1,2-dihydrospiro[benzo[d][1,3]oxazine-4,3′-piperidin]-1′-yl)-4-((R)-3-methoxypyrrolidin-1-yl)-1,4-dioxobutan-2-yl)carbamoyl)phenyl)carbamate]	10.3 nM	36.4 nM	
COC(=O)Nc1ccc(C(=O)N[C@@H](CC(=O)N2CC[C@@H]2C)C(=O)N2CCC[C@@]3(C2)OC(=O)Nc2ccc(Cl)cc23)cc1 [Example 102, methyl (4-(((S)-1-((R)-6-chloro-2-oxo-1,2-dihydrospiro[benzo[d][1,3]oxazine-4,3′-piperidin]-1′-yl)-4-((S)-2-methylazetidin-1-yl)-1,4-dioxobutan-2-yl)carbamoyl)phenyl)carbamate]	< 1.36 nM	0.77 nM	
COC(=O)Nc1ccc(C(=O)N[C@@H](CC(F)F)C(=O)N2CCC[C@@]3(C2)OC(=O)Nc2ccc(Cl)c(F)c23)cc1 [Example 104, methyl (4-(((S)-1-((R)-6-chloro-5-fluoro-2-oxo-1,2-dihydrospiro[benzo[d][1,3]oxazine-4,3′-piperidin]-1′-yl)-4,4-difluoro-1-oxobutan-2-yl)carbamoyl)phenyl)carbamate]	5.28 nM	15 nM	
COC(=O)Nc1ccc(C(=O)N[C@@H](CCF)C(=O)N2CCC[C@@]3(C2)OC(=O)Nc2ccc(Cl)c(F)c23)cc1 [Example 105, methyl (4-(((S)-1-((R)-6-chloro-5-fluoro-2-oxo-1,2-dihydrospiro[benzo[d][1,3]oxazine-4,3′-piperidin]-1′-yl)-4-fluoro-1-oxobutan-2-yl)carbamoyl)phenyl)carbamate]	3.04 nM	9.99 nM	
COC(=O)Nc1ccc(C(=O)N[C@@H](CC(C)O)C(=O)N2CCC3(C2)OC(=O)Nc2ccc(Cl)cc23)cc1 (stereo partly drawn) [Example 110, methyl (4-(((2S)-1-((R)-6-chloro-2-oxo-1,2-dihydrospiro[benzo[d][1,3]oxazine-4,3′-pyrrolidin]-1′-yl)-4-hydroxy-1-oxopentan-2-yl)carbamoyl)phenyl)carbamate]	147 nM	52 nM	
COC(=O)Nc1ccc(C(=O)N[C@@H](CC(C)(C)O)C(=O)N2CC[C@@]3(C2)OC(=O)Nc2ccc(Cl)cc23)cc1 [Example 111, methyl (4-(((S)-1-((R)-6-chloro-2-oxo-1,2-dihydrospiro[benzo[d][1,3]oxazine-4,3′-pyrrolidin]-1′-yl)-4-hydroxy-4-methyl-1-oxopentan-2-yl)carbamoyl)phenyl)carbamate]	76 nM	12 nM	
COC(=O)Nc1ccc(C(=O)N[C@@H](CC(C)(C)OC)C(=O)N2CCC[C@@]3(C2)OC(=O)Nc2ccc(Cl)c(F)c23)cc1 [Example 119, methyl (4-(((2S)-1-(6-chloro-5-fluoro-2-oxo-1,2-dihydrospiro[benzo[d][1,3]oxazine-4,3′-piperidin]-1′-yl)-4-methoxy-4-methyl-1-oxopentan-2-yl)carbamoyl)phenyl)carbamate]	4.92 nM	10.2 nM	
O=C1Nc2ccc(Cl)c(F)c2[C@@]2(CCCN(C(=O)C(Cc3ccccc3)c3ncc(-c4ccc(C(=O)O)s4)[nH]3)C2)O1 (stereo partly drawn) [Example 123, 5-(2-(1-((R)-6-chloro-5-fluoro-2-oxo-1,2-dihydrospiro[benzo[d][1,3]oxazine-4,3′-piperidin]-1′-yl)-1-oxo-3-phenylpropan-2-yl)-1H-imidazol-5-yl)thiophene-2-carboxylic acid]	4.65 nM	15.1 nM	
COC(=O)Nc1cccc(C(=O)N[C@@H](Cc2ccccc2)C(=O)N2CCC3(C2)OC(=O)Nc2ccc(Cl)cc23)c1 (stereo partly drawn) [Example 143, methyl (3-(((2S)-1-(6-chloro-2-oxo-1,2-dihydrospiro[benzo[d][1,3]oxazine-4,3′-pyrrolidin]-1′-yl)-1-oxo-3-phenylpropan-2-yl)carbamoyl)phenyl)carbamate]	2.63 nM		1250 nM
Cc1ncc(C(=O)N[C@@H](Cc2ccccc2)C(=O)N2CCC3(C2)OC(=O)Nc2ccc(Cl)cc23)cn1 (stereo partly drawn) [Example 144]	7.72 nM		5000 nM

— patent US10093683B2, “Factor XIa inhibitors” (Merck Sharp & Dohme Corp., priority 2014, dated 2018)
